Test results: PMC7699745, “The Search for New Anticonvulsants in a Group of (2,5-Dioxopyrrolidin-1-yl)(phenyl)Acetamides with Hybrid Structure—Synthesis and In Vivo/In Vitro Studies” (International Journal of Molecular Sciences, 2020)
Like-named read-outs stand apart in the source and are kept apart here.

Legend:
MES seizures, mice [1] = assay: Maximal electroshock (MES) seizure test; assay type: in vivo; settings: Mus musculus, ip; for responders at 100 mg/kg: 0.5 h, i.p.; for ED50: at TPE (0.5 h; LTG 1.0 h), 95% confidence intervals in parentheses
[2] = system: 6 Hz (32 mA) seizures, mice; assay: Psychomotor 6 Hz (32 mA) seizure model; assay type: in vivo; settings: for responders at 100 mg/kg / ED50: Mus musculus, ip; for responders at 100 mg/kg: 0.5 h, read-out: 6 Hz (32 mA) test, number of mice protected / number of mice tested (converted); for ED50: at TPE (0.5 h; LTG 1.0 h), 95% confidence intervals in parentheses
Na+ channel (site 2) = assay: Radioligand binding, Na+ channel (site 2); settings: 10 µM; rat cerebral cortex
Protocol: (§1) Taking into consideration the structural similarities of molecules described in the current manuscript with their chemical prototypes AS-1 and DK-1, the binding studies toward aforementioned molecular targets were performed commercially for several active substances from each subseries (3, 4, 21, 24, 25, 27, 29, and 30). Furthermore, we also tested two other and well-known targets for AEDs, namely, the Cav2.2 (N-type) calcium channel and gamma-aminobutyric acid (GABA)-A receptor. With the aim of excluding potentially dangerous proarrhythmic properties for each compound, their interaction with the potassium (hERG) channel was also tested.
(§2) Binding studies were carried out commercially in Eurofines Laboratories (Poitiers, France). The functional assays were performed in Eurofins Panlabs Discovery Services Taiwan, Ltd. (New Taipei City, Taiwan). All procedures are described elsewhere (for details, see Table S4 in Supplementary Materials).
(§3) Binding studies were carried out commercially in Eurofines Laboratories (Poitiers, France). The
(§4) functional assays were performed in Eurofins Panlabs Discovery Services Taiwan, Ltd. (New Taipei
(§5) City, Taiwan). All procedures are described elsewhere (Table S4).
(§6) Table S4. In vitro binding and functional assays. […]

Cav1.2 channel = target: T1, Cav1.2 channel (Rattus norvegicus, UniProt P22002); assay: Radioligand binding, Cav1.2 channel; parameters: inhibition: dose or concentration left out as unconfirmed; settings: for inhibition: rat cerebral cortex, read-out: % Inhibition of Control Specific Binding, Cav1.2 Channel (Antagonist Radioligand); for binding to voltage-gated calcium channels Cav1.2: concentration of 10 µM
T1 construct: tissue Eurofins (Poitiers, France), contract assay; host or cells: rat cerebral cortex (own knowledge of the vendor's assay)
Protocol: as §1, §2, §3, §4, §5
(§7) Table S4. In vitro binding and functional assays.
(§8) GABA-A receptor (α1,β2,γ2)
(§9) Potassium channel (hERG) 14
(§10) Cav1.2 (h) calcium ion channel cell based antagonist calcium flux assay 16,17

Cav2.2 channel = target: T2, Cav2.2 channel (Rattus norvegicus, UniProt Q02294); assay: Radioligand binding, Cav2.2 channel; parameters: dose or concentration left out as unconfirmed; settings: rat cerebral cortex; read-out: % Inhibition of Control Specific Binding, Cav2.2 Channel (Antagonist Radioligand)
T2 construct: tissue Eurofins (Poitiers, France), contract assay; host or cells: rat cerebral cortex (own knowledge of the vendor's assay)
Protocol: as §1, §2, §3, §4, §5, §7, §8, §9, §10

[3] = target: T3, GABA-A receptor (α1,β2,γ2) (Homo sapiens, UniProt P14867+P47870); assay: Radioligand binding, GABA-A receptor; parameters: dose or concentration left out as unconfirmed; settings: rat cerebral cortex; read-out: % Inhibition of Control Specific Binding, GABA-A Receptor (α1,β2,γ2) (Agonist Radioligand)
T3 construct: Eurofins (Poitiers, France), contract assay
Protocol: as §1, §2, §3, §4, §5, §7, §8, §9, §10

Potassium channel (hERG) = target: T4, Potassium channel (hERG) (Homo sapiens, UniProt Q12809); assay: Binding, potassium channel (hERG); settings: 100 µM; human recombinant (HEK-293 cells)
T4 construct: Eurofins (Poitiers, France), contract assay
T4 sequence (Q12809 whole entry): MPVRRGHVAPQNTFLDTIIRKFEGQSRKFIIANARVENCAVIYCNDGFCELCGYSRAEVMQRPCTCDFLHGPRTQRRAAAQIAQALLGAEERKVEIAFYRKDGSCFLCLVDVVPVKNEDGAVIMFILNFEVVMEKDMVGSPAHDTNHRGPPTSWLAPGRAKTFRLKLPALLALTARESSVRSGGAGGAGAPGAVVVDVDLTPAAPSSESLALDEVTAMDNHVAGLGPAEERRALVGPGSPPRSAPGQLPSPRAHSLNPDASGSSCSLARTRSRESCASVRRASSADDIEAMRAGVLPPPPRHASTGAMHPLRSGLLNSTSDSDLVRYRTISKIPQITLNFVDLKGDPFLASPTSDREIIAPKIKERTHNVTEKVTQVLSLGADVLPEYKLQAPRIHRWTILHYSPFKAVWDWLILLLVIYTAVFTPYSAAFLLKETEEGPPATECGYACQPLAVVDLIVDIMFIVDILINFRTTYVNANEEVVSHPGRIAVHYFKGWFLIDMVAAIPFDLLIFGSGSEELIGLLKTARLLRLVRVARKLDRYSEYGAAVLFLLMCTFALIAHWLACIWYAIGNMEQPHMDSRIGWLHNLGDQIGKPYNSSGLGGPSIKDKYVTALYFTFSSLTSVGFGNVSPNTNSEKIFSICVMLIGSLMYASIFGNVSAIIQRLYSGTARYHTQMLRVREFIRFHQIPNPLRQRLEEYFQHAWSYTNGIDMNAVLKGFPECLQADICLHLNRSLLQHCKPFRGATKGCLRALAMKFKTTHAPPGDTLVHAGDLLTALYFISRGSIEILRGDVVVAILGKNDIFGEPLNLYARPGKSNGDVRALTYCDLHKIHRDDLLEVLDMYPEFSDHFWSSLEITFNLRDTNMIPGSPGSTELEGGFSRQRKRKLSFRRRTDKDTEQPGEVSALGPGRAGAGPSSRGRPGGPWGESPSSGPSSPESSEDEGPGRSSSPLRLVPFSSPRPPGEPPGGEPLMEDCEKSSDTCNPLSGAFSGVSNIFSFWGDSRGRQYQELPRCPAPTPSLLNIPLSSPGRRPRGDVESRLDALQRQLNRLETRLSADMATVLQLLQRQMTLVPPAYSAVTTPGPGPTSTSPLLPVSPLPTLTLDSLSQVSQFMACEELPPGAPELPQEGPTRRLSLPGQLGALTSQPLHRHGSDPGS
Protocol: as §1, §2, §3, §4, §5, §7, §8, §9, §10

[4] = Rotarod test for acute neurological toxicity; settings: mouse, in vivo, ip
[5] = system: motor coordination of mice; assay: Rotarod test for acute neurological toxicity; settings: for impairment of motor coordination of mice: doses as high as 300 mg/kg; for Rotarod test, number of mice / number of mice tested: i.p., 100 mg/kg, 0.5 h
[6] = target: T5, Cav1.2 (h) calcium ion channel (Homo sapiens, UniProt Q13936); assay: Cav1.2 (h) cell-based antagonist calcium flux assay; settings: for inhibition at 10 µM: HEK293, human recombinant (HEK-293 cells), read-out: % Inhibition of Control Agonist Response, Cav1.2 (h) calcium flux; for antagonist properties in cell-based flux studies (Cav1.2): 10 µM
T5 construct: host or cells: HEK-293
T5 sequence (Q13936 whole entry): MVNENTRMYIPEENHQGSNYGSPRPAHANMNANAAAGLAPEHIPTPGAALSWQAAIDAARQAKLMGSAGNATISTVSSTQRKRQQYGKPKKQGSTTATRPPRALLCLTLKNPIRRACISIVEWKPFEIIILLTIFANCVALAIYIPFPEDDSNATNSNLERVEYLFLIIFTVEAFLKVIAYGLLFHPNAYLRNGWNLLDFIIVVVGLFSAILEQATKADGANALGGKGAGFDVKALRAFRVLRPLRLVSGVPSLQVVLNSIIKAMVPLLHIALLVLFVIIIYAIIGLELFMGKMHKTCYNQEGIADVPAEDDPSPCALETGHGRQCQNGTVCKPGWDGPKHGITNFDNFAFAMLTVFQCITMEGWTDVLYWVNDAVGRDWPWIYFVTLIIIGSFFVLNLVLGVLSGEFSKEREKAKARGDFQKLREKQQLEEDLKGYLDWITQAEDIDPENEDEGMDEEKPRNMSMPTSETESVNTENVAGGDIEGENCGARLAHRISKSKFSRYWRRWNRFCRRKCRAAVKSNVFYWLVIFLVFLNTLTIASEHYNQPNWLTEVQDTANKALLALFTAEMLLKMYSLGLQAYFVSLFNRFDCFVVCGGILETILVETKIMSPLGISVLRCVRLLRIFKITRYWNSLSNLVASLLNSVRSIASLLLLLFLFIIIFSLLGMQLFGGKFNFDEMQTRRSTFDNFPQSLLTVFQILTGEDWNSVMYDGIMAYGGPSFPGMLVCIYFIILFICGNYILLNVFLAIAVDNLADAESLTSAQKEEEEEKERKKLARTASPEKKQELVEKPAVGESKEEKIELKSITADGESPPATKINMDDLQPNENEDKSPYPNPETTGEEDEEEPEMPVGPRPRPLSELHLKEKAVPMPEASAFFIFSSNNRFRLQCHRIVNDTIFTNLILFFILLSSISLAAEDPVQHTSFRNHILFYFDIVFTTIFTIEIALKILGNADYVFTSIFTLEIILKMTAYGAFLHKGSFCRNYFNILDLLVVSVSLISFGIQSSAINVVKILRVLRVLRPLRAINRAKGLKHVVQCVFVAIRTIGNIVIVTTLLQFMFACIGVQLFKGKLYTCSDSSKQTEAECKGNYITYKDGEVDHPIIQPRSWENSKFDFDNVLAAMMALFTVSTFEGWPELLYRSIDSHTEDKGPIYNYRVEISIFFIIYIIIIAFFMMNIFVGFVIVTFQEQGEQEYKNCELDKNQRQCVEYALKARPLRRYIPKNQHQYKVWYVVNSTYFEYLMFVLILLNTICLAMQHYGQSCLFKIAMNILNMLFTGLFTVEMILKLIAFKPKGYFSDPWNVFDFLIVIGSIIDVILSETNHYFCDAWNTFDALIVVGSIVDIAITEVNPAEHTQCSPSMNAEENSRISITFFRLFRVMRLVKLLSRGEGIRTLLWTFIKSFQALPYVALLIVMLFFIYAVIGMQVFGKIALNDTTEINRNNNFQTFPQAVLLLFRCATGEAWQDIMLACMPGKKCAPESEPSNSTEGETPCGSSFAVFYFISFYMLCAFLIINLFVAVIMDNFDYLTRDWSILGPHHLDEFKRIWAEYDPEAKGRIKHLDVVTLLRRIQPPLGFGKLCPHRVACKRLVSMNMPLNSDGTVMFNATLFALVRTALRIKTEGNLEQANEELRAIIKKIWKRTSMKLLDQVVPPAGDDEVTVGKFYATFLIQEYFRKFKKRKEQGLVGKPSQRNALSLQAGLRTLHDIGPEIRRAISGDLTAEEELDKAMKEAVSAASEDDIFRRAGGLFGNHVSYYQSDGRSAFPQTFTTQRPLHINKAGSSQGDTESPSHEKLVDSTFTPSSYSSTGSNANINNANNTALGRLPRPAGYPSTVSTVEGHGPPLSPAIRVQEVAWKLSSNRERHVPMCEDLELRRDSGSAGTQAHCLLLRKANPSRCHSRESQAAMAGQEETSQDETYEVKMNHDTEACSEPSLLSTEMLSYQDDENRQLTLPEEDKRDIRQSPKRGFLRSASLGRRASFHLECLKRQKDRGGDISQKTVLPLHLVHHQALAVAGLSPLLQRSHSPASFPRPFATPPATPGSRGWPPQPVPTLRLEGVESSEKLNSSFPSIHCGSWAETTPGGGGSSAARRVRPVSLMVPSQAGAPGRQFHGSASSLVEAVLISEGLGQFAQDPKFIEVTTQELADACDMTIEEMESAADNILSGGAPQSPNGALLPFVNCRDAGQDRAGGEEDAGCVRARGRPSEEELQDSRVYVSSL
T5 sequence (Q08289 whole entry partner): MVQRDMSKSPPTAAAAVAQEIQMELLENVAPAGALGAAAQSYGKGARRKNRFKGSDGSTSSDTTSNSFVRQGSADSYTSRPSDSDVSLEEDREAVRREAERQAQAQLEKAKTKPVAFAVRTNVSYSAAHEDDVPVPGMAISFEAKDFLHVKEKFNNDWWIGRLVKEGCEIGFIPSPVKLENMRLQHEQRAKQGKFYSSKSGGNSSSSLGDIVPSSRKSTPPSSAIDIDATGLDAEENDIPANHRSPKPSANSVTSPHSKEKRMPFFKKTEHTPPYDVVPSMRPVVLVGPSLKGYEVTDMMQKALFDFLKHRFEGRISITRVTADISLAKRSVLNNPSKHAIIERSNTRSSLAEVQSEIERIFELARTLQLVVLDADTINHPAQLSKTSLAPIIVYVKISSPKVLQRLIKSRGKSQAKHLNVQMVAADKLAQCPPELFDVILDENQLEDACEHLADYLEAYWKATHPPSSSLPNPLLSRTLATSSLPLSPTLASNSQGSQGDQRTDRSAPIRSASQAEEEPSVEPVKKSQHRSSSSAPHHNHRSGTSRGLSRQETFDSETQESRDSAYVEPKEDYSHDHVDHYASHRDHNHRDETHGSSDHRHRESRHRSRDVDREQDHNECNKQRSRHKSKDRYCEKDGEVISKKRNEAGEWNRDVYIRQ
T5 sequence (P54289 25-956 partner limits assumed): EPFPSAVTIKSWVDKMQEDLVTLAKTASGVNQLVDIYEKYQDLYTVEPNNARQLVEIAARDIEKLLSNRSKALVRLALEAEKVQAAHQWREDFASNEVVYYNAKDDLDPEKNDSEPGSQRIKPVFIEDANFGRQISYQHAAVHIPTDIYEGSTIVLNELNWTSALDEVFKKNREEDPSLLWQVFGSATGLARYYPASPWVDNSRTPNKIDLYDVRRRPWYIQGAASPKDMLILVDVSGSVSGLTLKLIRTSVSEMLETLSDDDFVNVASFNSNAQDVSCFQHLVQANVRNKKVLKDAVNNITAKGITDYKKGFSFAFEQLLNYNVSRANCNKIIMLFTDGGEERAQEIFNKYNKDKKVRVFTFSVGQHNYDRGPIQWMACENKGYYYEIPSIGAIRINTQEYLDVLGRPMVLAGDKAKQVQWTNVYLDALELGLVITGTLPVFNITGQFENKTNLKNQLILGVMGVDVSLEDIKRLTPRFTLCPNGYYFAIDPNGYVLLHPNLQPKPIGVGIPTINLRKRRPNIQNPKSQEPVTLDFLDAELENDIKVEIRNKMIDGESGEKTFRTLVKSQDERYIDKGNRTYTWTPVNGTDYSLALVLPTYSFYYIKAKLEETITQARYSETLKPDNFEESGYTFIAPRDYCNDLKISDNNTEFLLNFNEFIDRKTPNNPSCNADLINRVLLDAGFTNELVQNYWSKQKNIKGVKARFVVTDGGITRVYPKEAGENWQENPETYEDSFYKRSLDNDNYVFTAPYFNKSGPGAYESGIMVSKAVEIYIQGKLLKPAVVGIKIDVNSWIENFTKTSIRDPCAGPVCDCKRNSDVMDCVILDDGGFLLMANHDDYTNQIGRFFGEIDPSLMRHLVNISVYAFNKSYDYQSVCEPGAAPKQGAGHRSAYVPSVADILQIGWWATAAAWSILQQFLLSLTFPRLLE
T5 sequence (P54289 957-1103 partner limits assumed): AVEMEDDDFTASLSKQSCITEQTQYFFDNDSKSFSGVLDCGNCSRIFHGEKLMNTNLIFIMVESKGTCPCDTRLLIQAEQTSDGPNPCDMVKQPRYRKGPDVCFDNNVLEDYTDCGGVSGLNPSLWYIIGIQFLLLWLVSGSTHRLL
Protocol: as §2, §3, §4, §5, §6, §10

[7] = Metabolic stability in human liver microsomes; assay type: in vitro ADME; settings: 120 min incubation with HLMs
From the text: Human liver microsomes (HLMs) were used for metabolic stability determination. Moreover, the most probable phase I reactions and structures of metabolites were proposed according to ion fragment analyses with the in silico support of MetaSite 6.0.1 software. […] On the other hand, an excellent metabolic stability of compound 24 was observed. Less than 4% of this derivative was converted into double-hydroxylated metabolite M1 (Figures S3, S4, and S7, Supplementary Materials). Finally, two monohydroxylated metabolites (M1, M2) were found in the reaction mixture with HLMs and 30, and around 17% of this compound was metabolized (Figures S5–S7, Supplementary Materials).
These assays were performed on human liver microsomes (HLMs), purchased from Sigma-Aldrich (St. Louis, MO, USA), according to [14].

CYP3A4 = target: T6, CYP3A4 (Homo sapiens, UniProt P08684); assay: Luminescent CYP3A4 P450-Glo assay; assay type: in vitro ADME; settings: 1 µM
T6 construct: purchased Promega (Madison, WI, USA)

CYP2C9 = CYP2C9 (Homo sapiens, UniProt P11712); assay: Luminescent CYP2C9 P450-Glo assay
[8] = Parallel artificial membrane permeability assay (PAMPA)
Protocol: (§11) Passive diffusion was tested in the parallel artificial membrane permeability assay (PAMPA) and expressed as the permeability coefficient (Pe). A highly permeable compound, caffeine (CFN), and a poorly permeable compound, norfloxacin (NFX), were used as the references.
(§12) Precoated PAMPA Plate System Gentest™ was provided by Corning, (Tewksbury, MA, USA).

PTZ seizures, mice = settings: known AED, background statement; cited from earlier work
MES seizures, mice [9] = settings: known AED, background statement; cited from earlier work
[10] = system: 6 Hz (32 mA) seizures, mice; settings: known AED, background statement; cited from earlier work
in vivo = settings: mouse, ip
in vitro = settings: PAMPA
Protocol: as §11, §12

[11] = groups of four, read-out: protection in the MES test
[12] = read-out: MES test, number of mice protected / number of mice tested (converted)

SMILES | responders at 100 mg/kg (MES seizures, mice [1]; [11]) [%] | responders at 100 mg/kg (MES seizures, mice [1]; [12]) [%] | ED50 (MES seizures, mice [1]) [mg/kg] | responders at 100 mg/kg [2] [%] | ED50 [2] [mg/kg] | % Inhibition of Control Specific Binding, Na+ Channel (Site 2) (Antagonist Radioligand) (Na+ channel (site 2)) [%] | inhibition (Cav1.2 channel) [%] | inhibition (Cav2.2 channel) [%] | inhibition [3] [%] | % Inhibition of Control Specific Binding, Potassium Channel (hERG) (Potassium channel (hERG)) [%] | TD50 at 0.5 h [4] [mg/kg] | Rotarod test, number of mice / number of mice tested [5] | inhibition at 10 µM [6] [%] | melting point [°C] | further results
O=C(Nc1ccccc1)C(c1ccccc1)N1C(=O)CCC1=O (stereo not drawn) [Compound 3, 2-(2,5-Dioxopyrrolidin-1-yl)-N,2-diphenylacetamide] | ≥ 50 | 50 | > 130 | 75 | 92.5 | 10.8 | 9 | 3.6 | 5.2 | 0.8 | > 300 | 0/4 | – | – | impairment of motor coordination of mice [5]: did not impair motor coordination
O=C(NCc1ccccc1C(F)(F)F)C(c1ccccc1)N1C(=O)CCC1=O (stereo not drawn) [Compound 21, 2-(2,5-Dioxopyrrolidin-1-yl)-2-phenyl-N-(2-(trifluoromethyl)benzyl)acetamide] | ≥ 50 | 50 | 49.6 | 25 | – | 18.8 | 26.6 | 0.2 | 1.2 | 6.3 | > 300 | 0/4 | 27 | 137.7 to 139.1 | effectiveness in the 6 Hz test ([2]; i.p.): not effective; impairment of motor coordination of mice [5]: did not impair motor coordination
O=C(NCc1cccc(OC(F)(F)F)c1)C(c1ccccc1)N1C(=O)CCC1=O (stereo not drawn) [Compound 24, 2-(2,5-Dioxopyrrolidin-1-yl)-2-phenyl-N-(3-(trifluoromethoxy)benzyl)acetamide] | ≥ 50 | 75 | > 130 | 100 | 43.8 | 22.3 | 36.5 | 5.5 | -0.8 | 4.4 | > 300 | 0/4 | 38.8 | 129.6 to 130.4 | binding to voltage-gated calcium channels Cav1.2 (Cav1.2 channel): moderate binding; antagonist properties in cell-based flux studies (Cav1.2) [6]: moderate antagonist properties; compound converted into metabolites / metabolized [7]: Less than 4%; parent compound remained in the reaction mixture [7]: 96.49%; effect on CYP3A4 activity (CYP3A4): slightly inhibited CYP3A4 activity; CYP2C9 activity, % of control (CYP2C9; 10 and 25 µM): up to 140 % of control; impairment of motor coordination of mice [5]: did not impair motor coordination; Papp [8]: 10.9 ± 0.5 ×10⁻⁶ cm/s
O=C(NCCc1ccccc1)C(c1ccccc1)N1C(=O)CCC1=O (stereo not drawn) [Compound 25, 2-(2,5-Dioxopyrrolidin-1-yl)-N-phenethyl-2-phenylacetamide] | ≥ 50 | 75 | 87.9 | 75 | 88.9 | 14.8 | 19 | 2.5 | 3.6 | 4.8 | 210 | 1/4 | – | – | acute neurological toxicity (rotarod) ([5]; at doses around or below 200 mg/kg): moderate acute neurological toxicity
O=C(NCCc1cccc(Cl)c1)C(c1ccccc1)N1C(=O)CCC1=O (stereo not drawn) [Compound 27, N-(3-Chlorophenethyl)-2-(2,5-dioxopyrrolidin-1-yl)-2-phenylacetamide] | – | 50 | – | 75 | 36.3 | 20.1 | 38.3 | 3.8 | 0.7 | 2.7 | > 300 | 0/4 | 40 | 137.4 to 138.2 | binding to voltage-gated calcium channels Cav1.2 (Cav1.2 channel): moderate binding; antagonist properties in cell-based flux studies (Cav1.2) [6]: moderate antagonist properties
O=C(NCCc1cccc(C(F)(F)F)c1)C(c1ccccc1)N1C(=O)CCC1=O (stereo not drawn) [Compound 29, 2-(2,5-Dioxopyrrolidin-1-yl)-2-phenyl-N-(3-(trifluoromethyl)phenethyl)acetamide] | 100 | 75 | 55.4 | 75 | 49.3 | 18.3 | 44.2 | -0.6 | 2.1 | 3.4 | 179 | 0/4 | 45 | 149.2 to 150.4 | binding to voltage-gated calcium channels Cav1.2 (Cav1.2 channel): moderate binding; antagonist properties in cell-based flux studies (Cav1.2) [6]: moderate antagonist properties
CCC1(C)CC(=O)NC1=O (stereo not drawn) [ETX, ethosuximide] | – | – | – | – | – | – | – | – | – | – | – | – | – | – | activity in the (sc)PTZ model (PTZ seizures, mice): protected mice only in the scPTZ model
COC[C@@H](NC(C)=O)C(=O)NCc1ccccc1 [LCS, lacosamide] | – | – | – | – | – | – | – | – | – | – | – | – | – | – | activity in the MES model (MES seizures, mice [9]): active; activity in the 6 Hz (32 mA) model [10]: active
CC[C@@H](C(N)=O)N1CCCC1=O [LEV, levetiracetam] | – | – | – | – | – | – | – | – | – | – | – | – | – | – | activity in the 6 Hz (32 mA) model [10]: showed efficacy only in the 6 Hz seizure model
Nc1nnc(-c2cccc(Cl)c2Cl)c(N)n1 [LTG, lamotrigine, reference compound] | – | – | 3.1 | – | 6.4 | – | – | – | – | – | – | – | – | – | TD50 at 0.5 h (in vivo): 48.3 mg/kg
CCn1cc(C(=O)O)c(=O)c2cc(F)c(N3CCNCC3)cc21 [NFX, norfloxacin] | – | – | – | – | – | – | – | – | – | – | – | – | – | – | Papp (in vitro): 0.056 ×10⁻⁶ cm/s
Nc1ccc(S(=O)(=O)Nc2ccnn2-c2ccccc2)cc1 [SE, sulfaphenazole, reference compound] | – | – | – | – | – | – | – | – | – | – | – | – | – | – | effect on CYP2C9 activity (CYP2C9; 1 µM): almost completely blocked CYP2C9 activity
